Assay results from patent US11066425B1, “Oxo-substituted compound” (SUMITOMO DAINIPPON PHARMA CO., LTD., priority 2018, dated 2021).
Counter-ions that a name gives are not always drawn.

Tested on: β-lactamase producing bacteria
Test: Test Example 1: MIC of meropenem (MEPM) combined with test compound at fixed 4 μg/mL, broth microdilution
Assay type: cell-based
Conditions: relative to MEPM alone
Method: Test Example 1: Evaluation of Minimum Inhibitory Concentration (MIC) of MEPM Against β-Lactamase Producing Bacteria
To evaluate the β-lactamase inhibitory activity of test compounds, the effect of combination of a test compound and a β-lactam agent against β-lactamase producing bacteria was evaluated. Meropenem (MEPM) was used as a β-lactam antimicrobial agent. The minimum inhibitory concentration (MIC) of MEPM against β-lactamase producing bacteria when a test compound was added at a fixed concentration (4 μg/mL) was measured by broth microdilution method (common ratio: 2). MIC of MEPM decreasing to less than 1/32 in combination with a test compound is indicated by A, decreasing from 1/32 to 1/16 is indicated by B, decreasing from ⅛ to ¼ is indicated by C, and decreasing to ½ or others are indicated by D. “-” represents untested cases.

SMILES | Decrease of MIC of MEPM in combination with a test compound, E. coli ATCC BAA-2340 (KPC) | Decrease of MIC of MEPM in combination with a test compound, K. pneumoniae ATCC BAA-2344 (KPC) | Decrease of MIC of MEPM in combination with a test compound, K. pneumoniae ATCC BAA-2524 (OXA-48)
CC(=O)N1CC(Oc2ccc3c(c2C(=O)O)OB(O)CC3)C1 [Example 1, 7-[(1-acetylazetidin-3-yl)oxy]-2-hydroxy-3,4-dihydro-2H-1,2-benzoxaborinine-8-carboxylic Acid] | A (MIC of MEPM decreasing to less than 1/32 in combination with a test compound is indicated by A) | A (MIC of MEPM decreasing to less than 1/32 in combination with a test compound is indicated by A) | B (decreasing from 1/32 to 1/16 is indicated by B)
O=C(O)c1c(OC2CN(C(=O)Cc3cnc[nH]3)C2)ccc2c1OB(O)CC2 [Example 2, 2-hydroxy-7-({1-[(1H-imidazol-5-yl)acetyl]azetidin-3-yl}oxy)-3,4-dihydro-2H-1,2-benzoxaborinine-8-carboxylic Acid Hydrochloride] | A (MIC of MEPM decreasing to less than 1/32 in combination with a test compound is indicated by A) | A (MIC of MEPM decreasing to less than 1/32 in combination with a test compound is indicated by A) | B (decreasing from 1/32 to 1/16 is indicated by B)
CS(=O)(=O)N1CC(Oc2ccc3c(c2C(=O)O)OB(O)CC3)C1 [Example 3, 2-hydroxy-7-{[1-(methanesulfonyl)azetidin-3-yl]oxy}-3,4-dihydro-2H-1,2-benzoxaborinine-8-carboxylic] | A (MIC of MEPM decreasing to less than 1/32 in combination with a test compound is indicated by A) | A (MIC of MEPM decreasing to less than 1/32 in combination with a test compound is indicated by A) | B (decreasing from 1/32 to 1/16 is indicated by B)
N[C@@H](C(=O)N1CC(Oc2ccc3c(c2C(=O)O)O[B-](O)(O)CC3)C1)c1ccc(O)cc1 [Example 4, 8-({1-[(2R)-2-amino-2-(4-hydroxyphenyl)acetyl]azetidin-3-yl}oxy)-4,4-dihydroxy-5-oxa-4-boranuidabicyclo[4.4.0]deca-l(6),7,9-triene-7-carboxylic Acid Disodium Salt] | A (MIC of MEPM decreasing to less than 1/32 in combination with a test compound is indicated by A) | A (MIC of MEPM decreasing to less than 1/32 in combination with a test compound is indicated by A) | A (MIC of MEPM decreasing to less than 1/32 in combination with a test compound is indicated by A)
CON=C(C(=O)N1CC(Oc2ccc3c(c2C(=O)O)OB(O)CC3)C1)c1csc(N)n1 [Example 5, 7-({1-[(2-amino-1,3-thiazol-4-yl)(methoxyimino)acetyl]azetidin-3-yl}oxy)-2-hydroxy-3,4-dihydro-2H-1,2-benzoxaborinine-8-carboxylic acid] | A (MIC of MEPM decreasing to less than 1/32 in combination with a test compound is indicated by A) | B (decreasing from 1/32 to 1/16 is indicated by B) | C (decreasing from ⅛ to ¼ is indicated by C)
Cl.O=C(O)c1c(OC2CN(C(=O)c3ccccn3)C2)ccc2c1OB(O)CC2 [Example 6, 2-hydroxy-7-{[1-(pyridine-2-carbonyl)azetidin-3-yl]oxy}-3,4-dihydro-2H-1,2-benzoxaborinine-8-carboxylic acid hydrochloride] | A (MIC of MEPM decreasing to less than 1/32 in combination with a test compound is indicated by A) | A (MIC of MEPM decreasing to less than 1/32 in combination with a test compound is indicated by A) | B (decreasing from 1/32 to 1/16 is indicated by B)
CSCC(=O)N1CC(Oc2ccc3c(c2C(=O)O)O[B-](O)(O)CC3)C1 [Example 7, 4,4-dihydroxy-8-({1-[(methylsulfanyl)acetyl]azetidin-3-yl}oxy)-5-oxa-4-boranuidabicyclo[4.4.0]deca-l(6),7,9-triene-7-carboxylic acid disodium salt] | A (MIC of MEPM decreasing to less than 1/32 in combination with a test compound is indicated by A) | A (MIC of MEPM decreasing to less than 1/32 in combination with a test compound is indicated by A) | B (decreasing from 1/32 to 1/16 is indicated by B)
O=C(O)c1c(OC2CN(C(=O)c3nc[nH]n3)C2)ccc2c1O[B-](O)(O)CC2 [Example 8, 4,4-dihydroxy-8-{[1-(1H-1,2,4-triazole-3-carbonyl)azetidin-3-yl]oxy}-5-oxa-4-boranuidabicyclo[4.4.0]deca-l(6),7,9-triene-7-carboxylic acid disodium salt] | A (MIC of MEPM decreasing to less than 1/32 in combination with a test compound is indicated by A) | A (MIC of MEPM decreasing to less than 1/32 in combination with a test compound is indicated by A) | B (decreasing from 1/32 to 1/16 is indicated by B)
O=C(O)c1c(OC2CN(C(=O)c3cccc[n+]3[O-])C2)ccc2c1O[B-](O)(O)CC2 [Example 9, 4,4-dihydroxy-8-{[1-(1-oxido-2-pyridinylcarbonyl)azetidin-3-yl]oxy}-5-oxa-4-boranuidabicyclo[4.4.0]deca-l(6),7,9-triene-7-carboxylic acid disodium salt] | A (MIC of MEPM decreasing to less than 1/32 in combination with a test compound is indicated by A) | A (MIC of MEPM decreasing to less than 1/32 in combination with a test compound is indicated by A) | A (MIC of MEPM decreasing to less than 1/32 in combination with a test compound is indicated by A)
N[C@@H](C(=O)N1CC(Oc2ccc3c(c2C(=O)O)O[B-](O)(O)CC3)C1)c1ccccc1 [Example 10, 8-({1-[(2R)-2-amino-2-phenylacetyl]azetidin-3-yl}oxy)-4,4-dihydroxy-5-oxa-4-boranuidabicyclo[4.4.0]deca-l(6),7,9-triene-7-carboxylic acid disodium salt] | A (MIC of MEPM decreasing to less than 1/32 in combination with a test compound is indicated by A) | A (MIC of MEPM decreasing to less than 1/32 in combination with a test compound is indicated by A) | B (decreasing from 1/32 to 1/16 is indicated by B)
O=C(O)c1c(OC2CN(C(=O)c3ccccc3)C2)ccc2c1O[B-](O)(O)CC2 [Example 11, 8-[(1-benzoylazetidin-3-yl)oxy]-4,4-dihydroxy-5-oxa-4-boranuidabicyclo[4.4.0]deca-l(6),7,9-triene-7-carboxylic acid disodium salt] | A (MIC of MEPM decreasing to less than 1/32 in combination with a test compound is indicated by A) | B (decreasing from 1/32 to 1/16 is indicated by B) | B (decreasing from 1/32 to 1/16 is indicated by B)
O=C(O)c1c(OC2CN(C(=O)c3cccnc3)C2)ccc2c1O[B-](O)(O)CC2 [Example 12, 4,4-dihydroxy-8-{[1-(pyridine-3-carbonyl)azetidin-3-yl]oxy}-5-oxa-4-boranuidabicyclo[4.4.0]deca-l(6),7,9-triene-7-carboxylic acid disodium salt] | A (MIC of MEPM decreasing to less than 1/32 in combination with a test compound is indicated by A) | A (MIC of MEPM decreasing to less than 1/32 in combination with a test compound is indicated by A) | B (decreasing from 1/32 to 1/16 is indicated by B)
O=C(O)c1c(OC2CN(C(=O)Cc3ccccn3)C2)ccc2c1O[B-](O)(O)CC2 [Example 13, 4,4-dihydroxy-8-({1-[(pyridin-2-yl)acetyl]azetidin-3-yl}oxy)-5-oxa-4-boranuidabicyclo[4.4.0]deca-l(6),7,9-triene-7-carboxylic acid disodium salt] | A (MIC of MEPM decreasing to less than 1/32 in combination with a test compound is indicated by A) | A (MIC of MEPM decreasing to less than 1/32 in combination with a test compound is indicated by A) | B (decreasing from 1/32 to 1/16 is indicated by B)
